Literature values in US20150328277A1 (Teva Pharmaceutical Industries, Ltd., priority 2012, published 2015).
Like-named read-outs stand apart in the source and are kept apart here.

Key:
[1] = system: multiple sclerosis; settings: 20 mg/day subcutaneous (s.c.); MS patients
[2] = system: experimental autoimmune encephalomyelitis (EAE); settings: orally administered; rats
[3] = system: experimental autoimmune encephalomyelitis (EAE); settings: orally administered; mice
[4] = system: relapsing multiple sclerosis; settings: administered orally; clinical trial

Substance: L-glutamic acid polymer with L-alanine, L-lysine, L-tyrosine, acetate (salt) [glatiramer acetate]
- total number of enhancing lesions as measured by MRI [1]: reduce the total number of enhancing lesions
- induction of EAE [2]: inhibited the induction of experimental autoimmune encephalomyelitis (EAE)
- induction of EAE [3]: inhibited the induction of experimental autoimmune encephalomyelitis (EAE)
- relapse rate or other clinical MRI parameters of disease activity [4]: did not affect relapse rate or other clinical MRI parameters of disease activity
